Experimental data published in US7547708B2, “N-sulfamoyl-N′-benzopyranpiperidine compounds and uses thereof” (Solvay Pharmaceuticals, Inc., priority 2005, dated 2009).

What was measured:
[1] = molecular target: T1, human carbonic anhydrase isoenzyme II (hCA II) (Homo sapiens, UniProt P00918); test: In vitro inhibition of human carbonic anhydrase isoenzyme II (dansylamide fluorescence); assay type: binding; conditions: hCA II from erythrocytes 10^-7 M, dansylamide 2.25x10^-6, 60 min at 37° C., single measurements; read-out: hCA II inhibiting effect in vitro, IC50
T1 construct: human carbonic anhydrase isoenzyme II from erythrocytes (Sigma-Aldrich); purchased Sigma-Aldrich; host or cells: human erythrocytes (natural source)
Description: 1. In vitro Inhibition of Human Carbonic Anhydrase Isoenzyme II (hCA II)
The test compounds of general Formula I in 96 well microplates were diluted with aqua bidest by using an automatic pipettor (CyBiWell®). From the different dilution plates, aliquots of 20 μl were transferred to the 96 well black assay plates with a pipetting station (Tecan Genesis®). In a second step, 148 μl of potassium phosphate buffer (20 mM, pH 7.4) was added, and as a third step, 20 μl of enzyme solution (1 μM human carbonic anhydrase isoenzyme II from erythrocytes (Sigma-Aldrich), dissolved in potassium phosphate buffer) incubated for 60 min at room temperature and the fluorescence signal (Tecan Ultra® fluorescence reader; excitation wavelength: 280 nm; emission wavelength: 465 nm) read at the end of the preincubation period (FLU-1). After the preincubation time, 20 μl of aqueous dansylamide solution (1 mM dansylamide (Sigma-Aldrich), dissolved in hydrochloric acid) were added and the fluorescence signal read every 10 min for a period of 60 min at 37° C. For calculation, the fluorescence data of the time point 60 min (FLU-2) were used. The total volume of assay mixture amounted to 208 μl. The final concentration of carbonic anhydrase II was 10^−7 M/L, of dansylamide 2.25×10^−6 and of compounds from 10^−8 M/L up to 10^−5 M/L. Final concentration of DMSO as compound solvent was 0.1 mM. Each microplate also contained blanks without compound and enzyme, controls without compound and ethoxzolamide (final concentration 5×10^−8 M/L). All data reflect single measurements. Data were expressed as % inhibition after calculation by the formula: % inhibition=100((1−(FLU-2cpd−FLU-2blank−FLU-1cpd+FLU-1blank)/(FLU-2control−FLU-2blank−FLU-1control−FLU-1blank))
The % inhibition data for each compound and the respective final concentrations were used for IC50 calculations by using the Prism 4 software. Concentration action figures were calculated by applying the Prism algorithm for nonlinear regression (curve-fit): sigmoidal dose response with variable slope and the constraints: top: 100 and bottom 0.

C57BI/6 mice = test: Acute in vivo food intake test in mice; conditions: 24 h food intake, C57BI/6 mice on high caloric diet, 100 mg/kg/day by oral gavage in two half doses
Description: 2. Acute in vivo Food Intake Test in Mice
The studies were carried out in male or female C57BI/6 mice (n=8-12 per group). The mice were kept on an inverted 12/12 h light/dark cycle (lights on 22:00). They were allowed food (high caloric diet) and water ad libitum. Food intake and water consumption was measured daily. The test compound of general Formula I was suspended in 1% methylcellulose in water and 2% (v/v) of Poloxamer 188 (Lutrol F68®) and administered by oral gavage at a dose of 100 mg/kg/day. One half of the dose was administered at 7.00-9.00 h; the remaining half of the dose was administered between 15.00-15.30 h.
In the test model described above, the test substances caused a decrease of the animals' 24 h food intake to the percentages of food intake when compared to control as given in the following Table 2.

SMILES | IC50 [1] [µM] | melting point [°C] | food intake [% of control] (C57BI/6 mice)
NS(=O)(=O)N1CCC2(CC1)CC(=O)c1ccccc1O2 [Example 1] | 6.6 | 172 to 174 | 83 % of control
COc1ccc2c(c1)C(=O)CC1(CCN(S(N)(=O)=O)CC1)O2 [Example 3] | 7.7 | 172 to 177 | 
NS(=O)(=O)N1CCC2(CC1)CC(=O)c1cc(Cl)ccc1O2 [Example 4] | 6.4 |  | 
